# Experimental data taken from article PMC8500670, “A selective WDR5 degrader inhibits acute myeloid leukemia in patient-derived mouse models” (Science translational medicine, 2021).
# Like-named read-outs stand apart in the source and are kept apart here.
# Experiments:
# Assay in all cases: biochemical
# Set-up in all cases: protein methyltransferase selectivity panel, enzyme activity relative to DMSO controls, single concentration in duplicate
# GLP = target: T1, GLP (Homo sapiens, UniProt Q9H9B1); conditions: Substrate:=Histone H3 1-21
# T1 construct: gene EHMT1
# T1 sequence (Q9H9B1 1-1298): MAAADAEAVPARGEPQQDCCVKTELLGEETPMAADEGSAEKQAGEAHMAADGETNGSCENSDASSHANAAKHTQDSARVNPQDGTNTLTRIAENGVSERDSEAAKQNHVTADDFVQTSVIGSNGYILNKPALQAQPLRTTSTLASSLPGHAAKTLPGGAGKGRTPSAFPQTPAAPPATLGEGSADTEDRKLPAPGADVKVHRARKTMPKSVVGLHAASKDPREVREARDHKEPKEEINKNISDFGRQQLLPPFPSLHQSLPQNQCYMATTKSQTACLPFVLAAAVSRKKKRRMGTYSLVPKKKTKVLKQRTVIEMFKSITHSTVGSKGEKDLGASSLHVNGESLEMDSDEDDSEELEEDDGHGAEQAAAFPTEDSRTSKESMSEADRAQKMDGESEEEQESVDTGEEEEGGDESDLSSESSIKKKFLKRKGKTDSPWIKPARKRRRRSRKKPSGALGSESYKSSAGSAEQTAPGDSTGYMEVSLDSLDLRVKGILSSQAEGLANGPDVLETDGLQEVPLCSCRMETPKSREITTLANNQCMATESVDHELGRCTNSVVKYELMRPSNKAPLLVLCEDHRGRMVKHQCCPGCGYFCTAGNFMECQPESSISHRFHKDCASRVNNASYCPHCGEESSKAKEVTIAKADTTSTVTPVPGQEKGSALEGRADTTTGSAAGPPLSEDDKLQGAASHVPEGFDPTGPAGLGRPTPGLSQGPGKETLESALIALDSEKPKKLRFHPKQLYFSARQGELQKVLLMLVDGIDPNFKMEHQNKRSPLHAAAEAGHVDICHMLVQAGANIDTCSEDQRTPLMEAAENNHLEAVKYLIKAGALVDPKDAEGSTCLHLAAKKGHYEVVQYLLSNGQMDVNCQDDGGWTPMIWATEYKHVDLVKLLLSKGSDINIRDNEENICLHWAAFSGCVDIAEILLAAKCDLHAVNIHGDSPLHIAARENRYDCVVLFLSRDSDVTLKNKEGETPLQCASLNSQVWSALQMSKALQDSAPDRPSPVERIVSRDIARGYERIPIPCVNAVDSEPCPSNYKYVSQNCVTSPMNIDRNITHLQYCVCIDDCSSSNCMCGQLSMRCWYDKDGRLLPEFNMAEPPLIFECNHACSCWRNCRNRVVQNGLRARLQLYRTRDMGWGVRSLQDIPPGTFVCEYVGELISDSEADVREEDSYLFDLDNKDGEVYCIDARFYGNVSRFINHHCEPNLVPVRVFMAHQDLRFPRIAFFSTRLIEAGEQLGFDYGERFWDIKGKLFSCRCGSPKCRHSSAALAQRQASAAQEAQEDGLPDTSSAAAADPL
# Experimental: (§1) We next assessed selectivity of MS67 against 22 protein methyltransferases (table S2) and a broad panel of common drug targets including 45 kinases (table S3) and 44 G protein–coupled receptors (GPCR), ion channels, and transporters (table S4). […] We subsequently determined that MS67 had moderate binding affinity (Ki = 1.0 ± 0.8 μM) to Sigma 2 receptor (fig. S10).
# PRMT3 = PRMT3 (Homo sapiens, UniProt O60678); conditions: Substrate:=Histone H4
# PRMT3, sequence (O60678 whole entry): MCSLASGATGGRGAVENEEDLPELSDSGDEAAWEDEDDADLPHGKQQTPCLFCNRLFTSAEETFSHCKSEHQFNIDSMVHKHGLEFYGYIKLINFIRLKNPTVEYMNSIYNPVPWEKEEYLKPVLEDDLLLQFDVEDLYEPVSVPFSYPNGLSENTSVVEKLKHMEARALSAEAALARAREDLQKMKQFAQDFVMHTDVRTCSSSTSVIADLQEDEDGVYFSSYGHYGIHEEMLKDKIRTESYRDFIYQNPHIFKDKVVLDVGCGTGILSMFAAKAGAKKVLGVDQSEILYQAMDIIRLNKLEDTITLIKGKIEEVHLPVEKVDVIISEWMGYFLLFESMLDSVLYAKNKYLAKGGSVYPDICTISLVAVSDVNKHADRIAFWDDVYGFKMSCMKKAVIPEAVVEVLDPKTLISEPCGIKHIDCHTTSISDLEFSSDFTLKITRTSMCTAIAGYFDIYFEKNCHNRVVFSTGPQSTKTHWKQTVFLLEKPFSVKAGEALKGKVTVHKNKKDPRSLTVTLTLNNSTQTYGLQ
# Experimental: as §1
# PRMT4 = target: T2, PRMT4 (Homo sapiens, UniProt Q86X55); conditions: Substrate:=Histone H3
# T2 construct: gene CARM1
# T2 sequence (Q86X55 1-608): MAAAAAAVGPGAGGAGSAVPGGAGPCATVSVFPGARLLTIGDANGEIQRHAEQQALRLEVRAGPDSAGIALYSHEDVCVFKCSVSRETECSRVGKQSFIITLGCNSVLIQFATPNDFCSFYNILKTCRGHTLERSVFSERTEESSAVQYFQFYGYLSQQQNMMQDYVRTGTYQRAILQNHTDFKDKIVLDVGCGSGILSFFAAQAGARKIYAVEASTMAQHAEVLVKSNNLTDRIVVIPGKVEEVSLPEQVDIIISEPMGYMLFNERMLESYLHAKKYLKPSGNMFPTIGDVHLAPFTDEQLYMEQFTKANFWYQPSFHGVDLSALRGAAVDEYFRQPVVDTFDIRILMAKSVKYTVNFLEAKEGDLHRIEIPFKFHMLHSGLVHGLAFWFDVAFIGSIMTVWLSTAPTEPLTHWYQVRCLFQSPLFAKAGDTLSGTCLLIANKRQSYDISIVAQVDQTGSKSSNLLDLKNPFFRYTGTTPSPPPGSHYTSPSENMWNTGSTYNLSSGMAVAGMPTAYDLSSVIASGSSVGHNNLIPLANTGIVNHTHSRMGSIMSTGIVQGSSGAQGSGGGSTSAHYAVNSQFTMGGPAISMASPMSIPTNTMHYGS
# Experimental: as §1
# PRMT6 = PRMT6 (Homo sapiens, UniProt Q96LA8); conditions: Substrate:=GST-GAR
# PRMT6, sequence (Q96LA8 whole entry): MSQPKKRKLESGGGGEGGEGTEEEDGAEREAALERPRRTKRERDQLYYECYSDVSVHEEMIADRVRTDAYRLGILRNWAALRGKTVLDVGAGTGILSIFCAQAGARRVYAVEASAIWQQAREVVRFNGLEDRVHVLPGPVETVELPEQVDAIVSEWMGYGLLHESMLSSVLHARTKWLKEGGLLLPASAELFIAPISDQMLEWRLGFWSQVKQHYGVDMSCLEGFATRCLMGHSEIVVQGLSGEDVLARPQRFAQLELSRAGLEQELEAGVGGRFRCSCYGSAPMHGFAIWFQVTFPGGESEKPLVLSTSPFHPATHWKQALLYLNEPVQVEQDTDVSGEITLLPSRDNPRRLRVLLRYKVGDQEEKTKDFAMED
# Experimental: as §1
# [1] = read-out: Enzyme % Activity (relative to DMSO controls) / MS67 / 10 / Data 1:
# [2] = read-out: Enzyme % Activity (relative to DMSO controls) / MS67 / 10 / Data 2:
structure (smiles),measurement,setting,value
Cc1ncsc1-c1ccc([C@H](C)NC(=O)[C@@H]2C[C@@H](O)CN2C(=O)[C@@H](NC(=O)CNC(=O)c2ccc(F)c(-c3ccc(N4C[C@@H](C)N(C)[C@@H](C)C4)c(NC(=O)c4c[nH]c(=O)cc4C(F)(F)F)c3)c2)C(C)(C)C)cc1 [MS67],remaining activity at 10 µM,GLP; [1],93.6%
same,remaining activity at 10 µM,GLP; [2],92.2%
same,remaining activity at 10 µM,PRMT3; [1],92%
same,remaining activity at 10 µM,PRMT3; [2],102%
same,remaining activity at 10 µM,PRMT4; [1],107%
same,remaining activity at 10 µM,PRMT4; [2],98.9%
same,remaining activity at 10 µM,PRMT6; [1],97.1%
same,remaining activity at 10 µM,PRMT6; [2],95.1%
